Marks after values point to notes of the source that are not given here.
Key:
[1] = system: Human Keratinocytes (HaCaT); assay: Annexin-V assay; type: cell-based; conditions: 48 h
Experimental: Cell lines: Human Keratinocytes (HaCaT); test Item (TI): IS181; Treatment regimen: treated twice (once after 24 hours)-48 hours; concentration range: 100 6 g/ml-5000 6 g/ml. […] (c) cells were treated with IS181 for 24 hours; (d) after 24 hours, cells were again treated with IS181 for 24 hours; (e) after 48 hours of first treatment, cells were stained with Annexin-V reagent and acquired on flow cytometer; (f) fold increase in apoptotic cells (early and late apoptotic) and necrotic cells was calculated with respect to untreated control cells. Positive control: Curcumin. […] (FIG. 4)

[2] = system: Human endothelial cells (EA.hy 926); assay: Inhibition of FBS stimulated endothelial cell proliferation (MTT); type: cell-based; conditions: for Absorbance (Mean ± SD) at 540 nm: EA.hy926, 10% FBS, 72 h
Experimental: Cell line: Human endothelial cells (EA.hy 926); test item: IS 181: treatment regimen: multiple additions (3)-72 hours; concentration range: 1 6 g/ml to 5000 6 g/ml (triplicate wells); sera condition: medium containing 10% FBS. […] The cells were then subjected to complete serum starvation. The cells were retreated with 10% FBS to stimulate cellular proliferation. […] Inhibition of FBS stimulated cell proliferation was measured using MTT assay. End point: percentage inhibition of FBS stimulated cell proliferation. Positive controls: anthralin; paclitaxel.

[3] = system: IL-6; assay: LPS stimulated IL-6 secretion in RAW264.7; type: cell-based, Mouse; conditions: for IL-6 % decrease with respect to LPS / IL-6 Conc (pg/ml): RAW264.7 + LPS, 24 h
Experimental: Effect on pro-inflammatory cytokines against LPS stimulation: TNF-α; IL-6; IL-1-β: Cell lines: Murine macrophage cell line (RAW264.7); test item: IS181; experimental steps: pretreatment of cells with TI for 2 hours; stimulation with LPS (100 ng/ml) for 24 hours; supernatant collection for cytokine analysis; concentration range: o.1 μg/ml-500 μg/ml (duplicate wells); Cytokines: TNF-α; IL-6; IL-1-β; Method of estimating cytokines: ELISA; positive control: dexamethasone.
Cell line: RAW264.7 (Mouse macrophages); TI treatment regimen: Pretreatment for 2 h; TI Concentration range: 0.1 μg/ml-500 μg/ml (duplicate wells); LPS stimulation: 100 ng/ml; Time point for supernatants collection: 24 h; Method of estimation: ELISA; Positive control: Dexamethasone

[4] = system: IFN-γ; assay: TNF-α stimulated IFN-γ secretion in HaCaT; type: cell-based, Human; design: IFN-γ Conc (μ/ml): unit not given here; conditions: for IFN-γ % decrease with respect to TNF-α / IFN-γ Conc (μ/ml): HaCaT + TNF-α, 24 h
Experimental: Effect on pro-inflammatory cytokines against TNF-α/LPS+PMA stimulation: TNF-α; IFN-γ; TARC; TSLP; IL-6; IL-8: Cell lines: Human keratinocytes (HaCaT); test item (TI); IS181; experimental steps: pre-treatment of cells with TI for 2 hours; stimulation with TNF-α: 20 ng/ml; stimulation with LPS+PMA-10 μg/ml LPS+40 ng/ml PMA; supernatant collection for cytokine analysis after 24 hours; concentration range: 0.1 μg/ml-100 μg/ml (duplicate wells); cytokines: TNF-α; IFN-γ; TARC; TSLP; IL-6; IL-8. Method of estimating cytokines: ELISA; positive control: dexamethasone.
Cell line: HaCaT (Human Keratinocytes); TI Treatment regimen: Pretreatment for 2 h; TI Concentration range: 0.1 μg/ml-100 μg/ml (duplicate wells); TNF-α stimulation: 20 ng/ml; LPS+PMA stimulation: 10 μg/ml LPS+40 ng/ml PMA; Time point for supernatants collection: 24 h; Method of estimation: ELISA; Positive control: Dexamethasone

[5] = molecular target: FLT1 (VEGFR1) (Homo sapiens, UniProt P17948); assay: Biochemical kinase assay FLT1; conditions: cell free
FLT1 (VEGFR1), sequence (P17948 27-1338): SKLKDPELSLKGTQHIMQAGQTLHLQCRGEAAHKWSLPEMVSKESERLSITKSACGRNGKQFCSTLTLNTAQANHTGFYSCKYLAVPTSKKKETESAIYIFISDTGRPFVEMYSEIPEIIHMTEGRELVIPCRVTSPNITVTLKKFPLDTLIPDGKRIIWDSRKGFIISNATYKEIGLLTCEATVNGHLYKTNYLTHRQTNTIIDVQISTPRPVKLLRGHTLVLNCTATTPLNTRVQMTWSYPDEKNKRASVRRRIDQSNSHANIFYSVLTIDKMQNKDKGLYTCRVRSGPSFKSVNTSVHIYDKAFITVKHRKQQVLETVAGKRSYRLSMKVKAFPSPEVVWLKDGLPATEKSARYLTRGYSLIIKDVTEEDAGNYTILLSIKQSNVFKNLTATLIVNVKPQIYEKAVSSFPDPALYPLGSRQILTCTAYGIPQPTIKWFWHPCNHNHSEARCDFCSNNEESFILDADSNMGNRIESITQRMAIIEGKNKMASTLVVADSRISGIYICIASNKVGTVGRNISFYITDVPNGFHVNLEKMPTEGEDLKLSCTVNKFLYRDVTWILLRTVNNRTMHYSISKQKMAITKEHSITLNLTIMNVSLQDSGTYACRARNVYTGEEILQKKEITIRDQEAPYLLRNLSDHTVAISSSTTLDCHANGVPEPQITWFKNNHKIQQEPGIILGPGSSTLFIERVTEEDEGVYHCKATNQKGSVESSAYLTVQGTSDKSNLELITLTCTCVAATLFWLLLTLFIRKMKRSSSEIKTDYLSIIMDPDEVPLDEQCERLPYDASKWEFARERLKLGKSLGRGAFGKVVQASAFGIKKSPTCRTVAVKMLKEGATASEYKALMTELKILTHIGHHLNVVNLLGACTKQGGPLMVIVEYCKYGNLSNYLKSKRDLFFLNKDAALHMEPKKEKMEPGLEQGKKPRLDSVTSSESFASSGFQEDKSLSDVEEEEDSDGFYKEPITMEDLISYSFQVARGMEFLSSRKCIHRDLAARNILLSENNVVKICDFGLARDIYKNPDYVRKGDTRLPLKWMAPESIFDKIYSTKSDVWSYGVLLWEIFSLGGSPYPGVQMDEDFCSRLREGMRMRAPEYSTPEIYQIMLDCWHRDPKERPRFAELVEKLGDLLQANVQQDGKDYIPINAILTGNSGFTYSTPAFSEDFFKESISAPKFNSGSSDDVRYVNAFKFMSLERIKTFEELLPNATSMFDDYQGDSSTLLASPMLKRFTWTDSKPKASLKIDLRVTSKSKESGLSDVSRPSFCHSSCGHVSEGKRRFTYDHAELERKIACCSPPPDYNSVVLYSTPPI
Experimental: Test system: cell free assays; test items: IS181; concentrations tested: 1 ng/ml-5000 μg/ml; Kinases: a) Cell free assays: EGFR (ErbB1); FLT1 (VEGFR1); JAK1; JAK3 MAP2K1 (MEK1); PDGFRA (PDGFR alpha); PRKCA (PKC alpha); b) cell based assay: JAK-STAT.

[6] = in vitro; conditions: human
Experimental: The cells were then incubated for 72 hours. Percentage cytotoxicity was determined using MTT assay.

In the case of “H-WVQRVVEKFLK-OH [IS181, H-Trp-Val-Gln-Arg-Val-Val-Glu-Lys-Phe-Leu-Lys-OH]”, the “increase in late apoptotic cells vs untreated” value ([1]; 2000 μg/ml) is reported as 2.1 fold, the “increase in necrotic cells vs untreated” value ([1]; 2000 μg/ml) is reported as 7.9 fold and the “increase in early apoptotic cells vs untreated” value ([1]; 5000 μg/ml) is reported as 2.3 fold. The “increase in late apoptotic cells vs untreated” value ([1]; 5000 μg/ml) was 5.3 fold, the “increase in necrotic cells vs untreated” value ([1]; 5000 μg/ml) was 4.5 fold and the “inhibition of FBS stimulated cell proliferation” value ([2]; EA.hy926, 5 μg/ml to 1000 μg/ml) was “significant inhibition”. The cytotoxic effects ([2]; EA.hy926, 2000 μg/ml to 5000 μg/ml) was “cytotoxic effects”, the “Absorbance (Mean ± SD) at 540 nm” value ([2]; 1 μg/ml) was 0.48 ± 0.006 and the “Absorbance (Mean ± SD) at 540 nm” value ([2]; 5 μg/ml) was 0.45 ± 0.027. The “Absorbance (Mean ± SD) at 540 nm” value ([2]; 10 μg/ml) was 0.46 ± 0.012, the “Absorbance (Mean ± SD) at 540 nm” value ([2]; 50 μg/ml) was 0.41 ± 0.011 and the “Absorbance (Mean ± SD) at 540 nm” value ([2]; 100 μg/ml) was 0.41 ± 0.012. The “Absorbance (Mean ± SD) at 540 nm” value ([2]; 500 μg/ml) was 0.33 ± 0.004, the “Absorbance (Mean ± SD) at 540 nm” value ([2]; 1000 μg/ml) was 0.22 ± 0.008 and the “Absorbance (Mean ± SD) at 540 nm” value ([2]; 2000 μg/ml) was 0.09 ± 0.0003. The “IL-6 inhibition as compared to LPS stimulated levels” value ([3]; RAW264.7) was “good extent of TNF-α and IL-6 inhibition”, the “IL-6 % decrease with respect to LPS” value ([3]; 0.1 μ/ml) was 57.2% and the “IL-6 Conc (pg/ml)” value ([3]; 0.1 μ/ml) was 908.7*** pg/ml. The “IL-6 % decrease with respect to LPS” value ([3]; 1 μ/ml) was 41.2%, the “IL-6 Conc (pg/ml)” value ([3]; 1 μ/ml) was 1248.3*** pg/ml and the “IL-6 % decrease with respect to LPS” value ([3]; 5 μ/ml) was 26.3%. For the same substance, the “IL-6 Conc (pg/ml)” value ([3]; 5 μ/ml) was 1565.9*** pg/ml, the “IL-6 % decrease with respect to LPS” value ([3]; 10 μ/ml) was 76.4% and the “IL-6 Conc (pg/ml)” value ([3]; 10 μ/ml) was 501.5*** pg/ml. The “IL-6 % decrease with respect to LPS” value ([3]; 100 μ/ml) was 35.4%, the “IL-6 Conc (pg/ml)” value ([3]; 100 μ/ml) was 1371.8*** pg/ml and the “IL-6 % decrease with respect to LPS” value ([3]; 500 μ/ml) was 68.5%. The “IL-6 Conc (pg/ml)” value ([3]; 500 μ/ml) was 669.1*** pg/ml, the “inhibition of IL-6 secretion as compared to LPS treated cells” value ([3]; RAW264.7, 0.1 μg/ml-500 μg/ml) was 26.3%-76.4% and the “IFN-γ secretion downregulated as compared to TNF-α stimulated cells” value ([4]; 0.1 μg/ml-100) was 27.1%-40.1%. For the same substance, the IFN-γ inhibition ([4]; HaCaT) was “good extent of IFN-γ and TARC inhibition”, the “IFN-γ % decrease with respect to TNF-α” value ([4]; 0.1 μg/ml) was 35.6% and the “IFN-γ Conc (μ/ml)” value ([4]; 0.1 μg/ml) was 30.7***. The “IFN-γ % decrease with respect to TNF-α” value ([4]; 1 μg/ml) was 36.7%, the “IFN-γ Conc (μ/ml)” value ([4]; 1 μg/ml) was 30.1*** and the “IFN-γ % decrease with respect to TNF-α” value ([4]; 5 μg/ml) was 40.1%. For the same substance, the “IFN-γ Conc (μ/ml)” value ([4]; 5 μg/ml) was 28.6***, the “IFN-γ % decrease with respect to TNF-α” value ([4]; 10 μg/ml) was 27.1% and the “IFN-γ Conc (μ/ml)” value ([4]; 10 μg/ml) was 34.7***. The “IFN-γ % decrease with respect to TNF-α” value ([4]; 100 μg/ml) was 32.0%, the “IFN-γ Conc (μ/ml)” value ([4]; 100 μg/ml) was 32.4*** and the inhibition at 50 µg/mL ([5]; 50 μg/ml) was 44%. For the same substance, the inhibition at 100 µg/mL ([5]; 100 μg/ml) was -16%, the inhibition at 250 µg/mL ([5]; 250 μg/ml) was -28% and the inhibition at 500 µg/mL ([5]; 500 μg/ml) was -44%. For the same substance, the inhibition at 1000 µg/mL ([5]; 1000 μg/ml) was -110%, the cytotoxicity at 72 h, 5000 μg/ml ([6]; HaCaT keratinocyte cells) was 96.1% and the cytotoxicity at 72 h, 10 μg/ml ([6]; HaCaT keratinocytes) was 16.7%. For the same substance, the cytotoxicity at 72 h, 50 μg/ml ([6]; HaCaT keratinocytes) was 17.8%, the cytotoxicity at 72 h, 500 μg/ml ([6]; HaCaT keratinocytes) was 26.9% and the cytotoxicity at 72 h, 1000 μg/ml ([6]; HaCaT keratinocytes) was 82.8%. The cytotoxicity at 72 h, 2000 μg/ml ([6]; HaCaT keratinocytes) was 75%.
